In patent US20240308994A1, “ISOXAZOLE DERIVATIVE OR PHARMACEUTICALLY ACCEPTABLE SALT THEREOF AND USE THEREOF” (INDUSTRY-UNIVERSITY COOPERATION FOUNDATION HANYANG …, priority 2021, published 2024):
Read-outs that look alike come from different tables or passages of the source.

How the values were obtained:
metabolic stability (MS) = format: in vitro ADME
Lyn = target: T1, Lyn (Homo sapiens, UniProt P07948); assay: protein kinase profile for 50 selected protein Kinase (FIG. 5), Lyn; format: biochemical; conditions: single-dose concentration 1.0 μM
T1 construct: purchased Reaction Biology Corp. (Kinase HotSpot service)
T1 sequence (P07948 whole entry): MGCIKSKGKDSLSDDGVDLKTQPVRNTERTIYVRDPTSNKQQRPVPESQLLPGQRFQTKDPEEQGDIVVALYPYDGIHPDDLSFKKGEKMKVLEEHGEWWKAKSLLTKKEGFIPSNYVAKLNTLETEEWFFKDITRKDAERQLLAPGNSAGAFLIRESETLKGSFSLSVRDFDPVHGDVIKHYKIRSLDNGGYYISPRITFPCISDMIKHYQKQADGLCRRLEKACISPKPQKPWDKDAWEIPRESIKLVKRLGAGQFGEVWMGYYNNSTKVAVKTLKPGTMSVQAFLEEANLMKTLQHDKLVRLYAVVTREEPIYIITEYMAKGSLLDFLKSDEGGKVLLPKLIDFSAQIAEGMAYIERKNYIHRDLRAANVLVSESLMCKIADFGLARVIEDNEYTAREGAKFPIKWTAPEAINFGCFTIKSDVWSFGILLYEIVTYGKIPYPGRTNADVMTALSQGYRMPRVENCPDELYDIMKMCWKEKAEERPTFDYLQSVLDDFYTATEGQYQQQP

CRaf = target: T2, CRaf (Homo sapiens, UniProt P04049); assay: protein kinase profile for 50 selected protein Kinase (FIG. 5), CRaf; format: biochemical; conditions: single-dose concentration 1.0 μM
T2 construct: purchased Reaction Biology Corp. (Kinase HotSpot service)
T2 sequence (P04049 whole entry): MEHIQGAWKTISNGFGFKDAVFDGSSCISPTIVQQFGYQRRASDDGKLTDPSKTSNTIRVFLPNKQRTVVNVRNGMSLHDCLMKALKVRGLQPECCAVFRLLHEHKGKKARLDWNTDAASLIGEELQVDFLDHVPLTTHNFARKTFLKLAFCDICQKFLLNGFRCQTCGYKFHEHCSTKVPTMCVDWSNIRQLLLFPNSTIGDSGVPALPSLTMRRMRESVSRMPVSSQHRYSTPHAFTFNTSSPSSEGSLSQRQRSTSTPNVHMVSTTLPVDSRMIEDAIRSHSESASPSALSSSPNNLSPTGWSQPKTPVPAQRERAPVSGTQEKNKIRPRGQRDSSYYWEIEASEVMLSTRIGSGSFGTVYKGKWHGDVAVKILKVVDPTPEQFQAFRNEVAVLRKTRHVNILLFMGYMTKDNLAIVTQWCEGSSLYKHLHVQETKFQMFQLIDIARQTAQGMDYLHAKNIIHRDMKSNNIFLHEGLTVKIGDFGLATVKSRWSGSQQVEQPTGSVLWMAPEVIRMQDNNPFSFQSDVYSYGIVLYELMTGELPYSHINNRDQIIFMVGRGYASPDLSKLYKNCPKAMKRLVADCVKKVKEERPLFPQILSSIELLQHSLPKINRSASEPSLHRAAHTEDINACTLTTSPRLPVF

FMS (h) = target: T3, FMS (h) (Homo sapiens, UniProt P07333); assay: Kinase HotSpot radiometric assay, activity on CSF-1R (FMS); format: biochemical
T3 construct: purchased Reaction Biology Corp. (Kinase HotSpot service)
T3 sequence (P07333 20-972): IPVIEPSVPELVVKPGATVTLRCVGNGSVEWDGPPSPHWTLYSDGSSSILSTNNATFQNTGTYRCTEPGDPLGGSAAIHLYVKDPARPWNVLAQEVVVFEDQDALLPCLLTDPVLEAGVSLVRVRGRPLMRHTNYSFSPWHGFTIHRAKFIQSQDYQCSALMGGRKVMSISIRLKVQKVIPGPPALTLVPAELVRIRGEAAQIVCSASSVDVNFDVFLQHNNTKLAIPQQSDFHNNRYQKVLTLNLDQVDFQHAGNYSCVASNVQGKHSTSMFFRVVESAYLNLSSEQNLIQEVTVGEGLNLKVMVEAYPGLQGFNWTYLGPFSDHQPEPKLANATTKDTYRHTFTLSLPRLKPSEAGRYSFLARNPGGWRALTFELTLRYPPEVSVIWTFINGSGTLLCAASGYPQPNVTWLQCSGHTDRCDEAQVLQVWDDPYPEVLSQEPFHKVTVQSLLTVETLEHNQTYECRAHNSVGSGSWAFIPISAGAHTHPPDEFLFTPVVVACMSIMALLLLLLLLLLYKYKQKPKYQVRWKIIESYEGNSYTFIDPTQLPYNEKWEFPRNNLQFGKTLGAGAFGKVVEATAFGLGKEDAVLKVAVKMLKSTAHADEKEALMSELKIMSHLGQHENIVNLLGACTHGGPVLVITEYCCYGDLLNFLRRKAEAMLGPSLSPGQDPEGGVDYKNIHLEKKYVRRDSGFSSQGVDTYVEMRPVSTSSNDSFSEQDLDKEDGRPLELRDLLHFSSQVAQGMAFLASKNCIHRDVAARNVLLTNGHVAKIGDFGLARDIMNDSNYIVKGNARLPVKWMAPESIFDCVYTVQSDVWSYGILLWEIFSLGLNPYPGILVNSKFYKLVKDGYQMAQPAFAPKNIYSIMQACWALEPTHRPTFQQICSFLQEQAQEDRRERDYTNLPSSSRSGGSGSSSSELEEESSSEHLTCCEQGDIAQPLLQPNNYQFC

CSF-1R = target: T4, CSF-1R (Homo sapiens, UniProt P07333); assay: protein kinase profile for 50 selected protein Kinase (FIG. 5), CSF-1R; format: biochemical; conditions: single-dose concentration 1.0 μM
T4 construct: purchased Reaction Biology Corp. (Kinase HotSpot service)
T4 sequence (P07333 20-972): as above

BRafV600E = target: T5, BRafV600E (Homo sapiens, UniProt P15056, V600E); assay: protein kinase profile for 50 selected protein Kinase (FIG. 5), BRafV600E; format: biochemical; conditions: single-dose concentration 1.0 μM
T5 construct: purchased Reaction Biology Corp. (Kinase HotSpot service)
T5 sequence (P15056 416-766 V600E limits assumed): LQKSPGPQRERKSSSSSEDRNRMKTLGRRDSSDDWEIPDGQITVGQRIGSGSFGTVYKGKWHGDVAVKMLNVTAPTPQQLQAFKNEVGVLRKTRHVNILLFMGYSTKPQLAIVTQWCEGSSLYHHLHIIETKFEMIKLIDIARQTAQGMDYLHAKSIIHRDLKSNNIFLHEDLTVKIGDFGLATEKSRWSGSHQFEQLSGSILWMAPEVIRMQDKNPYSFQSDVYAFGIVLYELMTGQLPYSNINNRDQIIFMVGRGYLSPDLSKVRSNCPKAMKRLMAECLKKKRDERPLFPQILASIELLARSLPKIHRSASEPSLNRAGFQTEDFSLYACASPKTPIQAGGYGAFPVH

plasma stability (PS) = format: in vitro ADME
PAMPA assay = format: in vitro ADME; conditions: read-out: PAMPA assay Pe Avg
EMS and FLT3 = assay: Protein Kinase Profiling analysis, selectivity (FIG. 4); format: biochemical
[1] = Table 3, read-out: IC50 (M) on FMS

SMILES	IC50 (FMS (h); [1])	IC50 (FMS (h); Table 2, read-out: IC50 (μm))	further results
Cc1ccc(NC(=O)c2cc(N3CCN(C)CC3)cc(C(F)(F)F)c2)cc1NC(=O)c1cnoc1C [Comparative example 1, reference compound]			MS (human) %@60 min (metabolic stability (MS)): <10%; inhibitory activity against Lyn (Lyn): inhibitory activity; inhibitory activity against CRaf (CRaf): inhibitory activity; IC50 (FMS (h); Table 5, read-out: IC50 on CSF-1R): 1.03e-08 M; inhibitory activity against CSF-1R (CSF-1R): inhibitory activity; inhibitory activity against BRafV600E (BRafV600E): inhibitory activity
Cc1cc(C(=O)Nc2cc(NC(=O)c3cc(N4CCN(C)CC4)cc(C(F)(F)F)c3)ccc2C)no1 [Compound 5a, 5-methyl-N-(2-methyl-5-(3-(4-methylpiperazin-1-yl)-5-(trifluoromethyl)benzamido)phenyl)isoxazole-3-carboxamide]			PS (human) @30 min (plasma stability (PS); 30 min): > 100%; PS (human) @60 min (plasma stability (PS); 60 min): > 100%; Papp (PAMPA assay): 55.5 ×10⁻⁶ cm/s
Cc1cc(C(=O)Nc2ccc(C3CCC[N+](C)(C)CC3)cc2C2=CCC(C)(C)CC2)no1 (centres unmarked) [Compound 80c, 4-(4′,4′-dimethyl-6-(5-methylisoxazole-3-carboxamido)-2′,3′,4′,5′-tetrahydro-[1,1′-biphenyl]-3-yl)-1,1-dimethylazepan-1-ium]	< 1e-07 M		
Cc1cc(C(=O)Nc2ccc(C3CC[N+](C)(C)CC3)cc2C2CCCCC2)no1 [Compound 81b, 4-(3-cyclohexyl-4-(5-methylisoxazole-3-carboxamido)phenyl)-1,1-dimethylpiperidin-1-ium]	1e-07 to 1e-06 M		
CC[N+]1(CC)CCC(c2ccc(NC(=O)c3cc(C)on3)c(C3=CCCCC3)c2)CC1 [Compound 82b, 1,1-diethyl-4-(6-(5-methylisoxazole-3-carboxamido)-2′,3′,4′,5′-tetrahydro-[1,1′-biphenyl]-3-yl)piperidin-1-ium]	< 1e-07 M		
Cc1cc(C(=O)Nc2ccc(C3CCN(C(=O)CN(C)C)CC3)cc2C2=CCCCC2)no1 [Compound 84b, N-(5-(1-(dimethylglycyl)piperidin-4-yl)-2′,3′,4′,5′-tetrahydro-[1,1′-biphenyl]-2-yl)-5-methylisoxazole-3-carboxamide]	1e-07 to 1e-06 M		

Second part, led by results:

IC50 (FMS (h); [1])	IC50 (FMS (h); Table 2, read-out: IC50 (μm))	SMILES	further results
1e-07 to 1e-06 M		CC(=O)N1CCC(c2ccc(NC(=O)c3cc(C)on3)c(C3=CCCCC3)c2)CC1 [Compound 83b, N-(5-(1-acetylpiperidin-4-yl)-2′,3′,4′,5′-tetrahydro-[1,1′-biphenyl]-2-yl)-5-methylisoxazole-3-carboxamide]	
< 1e-07 M	1e-07 to 1e-06 M	Cc1cc(C(=O)Nc2ccc(C3CC(C)(C)NC(C)(C)C3)cc2C2=CCCCC2)no1 [Compound 92a, 5-methyl-N-(5-(2,2,6,6-tetramethylpiperidin-4-yl)-2′,3′,4′,5′-tetrahydro-[1,1′-biphenyl]-2-yl)isoxazole-3-carboxamide]	
< 1e-07 M	< 1e-07 M	Cc1cc(C(=O)Nc2ccc(C3CC(C)(C)NC(C)(C)C3)cc2C2=CCC(C)CC2)no1 (centres unmarked) [Compound 92b, 5-methyl-N-(4′-methyl-5-(2,2,6,6-tetramethylpiperidin-4-yl)-2′,3′,4,5′-tetrahydro-[1,1′-biphenyl]-2-yl)isoxazole-3-carboxamide]	kinase selectivity of EMS and FLT3 (EMS and FLT3): high selectivity
< 1e-07 M	< 1e-07 M	Cc1cc(C(=O)Nc2ccc(C3CC(C)(C)NC(C)(C)C3)cc2C2=CCC(C)(C)CC2)no1 [Compound 92c, N-(4′,4′-dimethyl-5-(2,2,6,6-tetramethylpiperidin-4-yl)-2,3′,4′,5′-tetrahydro-[1,1′-biphenyl]-2-yl)-5-methylisoxazole-3-carboxamide]	
1e-07 to 1e-06 M	1e-07 to 1e-06 M	Cc1cc(C(=O)Nc2ccc(C3CC(C)(C)NC(C)(C)C3)cc2C2=CCCCCC2)no1 [Compound 92d, N-(2-(cyclohept-1-en-1-yl)-4-(2,2,6,6-tetramethylpiperidin-4-yl)phenyl)-5-methylisoxazole-3-carboxamide]	
